Key:
[1] = target: Beta-1 adrenergic receptor (Homo sapiens, UniProt P08588); test: DRUGMATRIX: Adrenergic beta1 radioligand binding (ligand: [125I] Cyanopindolol); assay type: cell membranes, CHO-K1, Membrane; details: cho-k1; Not Active = under 50% inhibition at 10 µM
[2] = DRUGMATRIX: ATPase, Na+/K+ enzyme inhibition (substrate: ATP); assay type: tissue-based, Sus scrofa, Heart; details: Not Active = under 50% inhibition at 10 µM
[3] = target: T1, Vasoactive intestinal polypeptide receptor 1 (Homo sapiens, UniProt P32241); assay type: cell membranes, Membrane; details: ht-29; note: in other assays of this panel Not Active means under 50% inhibition at 10 µM
T1 sequence (P32241 whole entry): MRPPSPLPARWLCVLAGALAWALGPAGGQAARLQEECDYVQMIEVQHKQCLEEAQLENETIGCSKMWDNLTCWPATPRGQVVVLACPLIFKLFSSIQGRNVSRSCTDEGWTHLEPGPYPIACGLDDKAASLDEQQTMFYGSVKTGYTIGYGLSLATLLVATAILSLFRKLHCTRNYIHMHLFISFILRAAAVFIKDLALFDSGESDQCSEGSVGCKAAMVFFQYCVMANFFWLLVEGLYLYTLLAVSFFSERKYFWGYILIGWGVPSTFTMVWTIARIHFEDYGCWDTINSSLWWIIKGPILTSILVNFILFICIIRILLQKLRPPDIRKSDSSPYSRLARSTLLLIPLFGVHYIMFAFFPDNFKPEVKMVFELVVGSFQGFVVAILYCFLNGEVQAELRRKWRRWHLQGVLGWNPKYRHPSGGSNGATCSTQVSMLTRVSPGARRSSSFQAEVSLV

[4] = DRUGMATRIX: Calcium Channel Type L, Phenylalkylamine radioligand binding (ligand: [3H] (-)-Desmethoxyverapamil (D-888)); assay type: cell membranes, Rattus norvegicus, Wistar, Brain, Membrane; details: Not Active = under 50% inhibition at 10 µM
[5] = target: Sodium-dependent dopamine transporter (Homo sapiens, UniProt Q01959); test: DRUGMATRIX: Dopamine Transporter radioligand binding (ligand: [125I] RTI-55); assay type: cell membranes, CHO-K1, Membrane; details: cho-k1; Not Active = under 50% inhibition at 10 µM
Melanocortin receptor 3 = Melanocortin receptor 3 (Homo sapiens, UniProt P41968); assay type: cell membranes, Membrane; details: hek293; note: in other assays of this panel Not Active means under 50% inhibition at 10 µM
[6] = DRUGMATRIX: Purinergic P2X radioligand binding (ligand: [3H] alpha, beta-Methylene-ATP); assay type: cell membranes, Oryctolagus cuniculus, New Zealand albino, Urinary bladder, Membrane; details: Not Active = under 50% inhibition at 10 µM
Cytochrome P450 1A2 = target: T2, Cytochrome P450 1A2 (Homo sapiens, UniProt P05177); details: bti-tn-5b1-4; note: in other assays of this panel Not Active means under 50% inhibition at 10 µM
T2 sequence (P05177 whole entry): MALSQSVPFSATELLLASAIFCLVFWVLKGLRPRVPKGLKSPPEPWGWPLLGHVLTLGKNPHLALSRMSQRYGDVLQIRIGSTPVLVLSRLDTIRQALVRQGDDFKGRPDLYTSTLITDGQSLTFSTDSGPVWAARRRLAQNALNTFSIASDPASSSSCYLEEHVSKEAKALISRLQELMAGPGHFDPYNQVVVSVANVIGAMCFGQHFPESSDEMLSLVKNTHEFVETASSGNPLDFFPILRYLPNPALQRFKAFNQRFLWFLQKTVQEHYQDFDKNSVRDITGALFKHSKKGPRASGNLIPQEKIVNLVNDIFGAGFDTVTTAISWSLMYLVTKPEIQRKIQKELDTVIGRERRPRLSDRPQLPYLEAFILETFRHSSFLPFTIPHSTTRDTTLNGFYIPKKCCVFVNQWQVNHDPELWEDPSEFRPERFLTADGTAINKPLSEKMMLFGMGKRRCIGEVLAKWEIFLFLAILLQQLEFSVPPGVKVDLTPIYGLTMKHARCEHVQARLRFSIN

Sodium-dependent dopamine transporter, sequence (Q01959 whole entry): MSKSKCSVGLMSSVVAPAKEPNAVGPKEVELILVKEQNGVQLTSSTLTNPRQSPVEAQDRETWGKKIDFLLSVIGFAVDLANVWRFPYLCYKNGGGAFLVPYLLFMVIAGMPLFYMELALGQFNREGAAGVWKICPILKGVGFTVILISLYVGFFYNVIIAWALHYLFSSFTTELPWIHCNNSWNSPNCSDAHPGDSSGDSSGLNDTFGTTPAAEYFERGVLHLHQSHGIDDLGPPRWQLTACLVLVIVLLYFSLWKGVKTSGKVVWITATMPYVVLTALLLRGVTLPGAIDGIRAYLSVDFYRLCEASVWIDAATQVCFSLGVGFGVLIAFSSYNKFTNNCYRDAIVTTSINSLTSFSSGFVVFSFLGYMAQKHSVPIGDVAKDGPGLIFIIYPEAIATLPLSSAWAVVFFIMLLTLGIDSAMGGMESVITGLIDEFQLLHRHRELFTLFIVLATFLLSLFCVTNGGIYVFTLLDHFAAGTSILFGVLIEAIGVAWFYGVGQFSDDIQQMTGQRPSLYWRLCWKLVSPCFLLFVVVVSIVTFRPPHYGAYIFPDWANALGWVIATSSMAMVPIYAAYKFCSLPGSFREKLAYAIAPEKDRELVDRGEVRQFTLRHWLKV
Beta-1 adrenergic receptor, sequence (P08588 whole entry): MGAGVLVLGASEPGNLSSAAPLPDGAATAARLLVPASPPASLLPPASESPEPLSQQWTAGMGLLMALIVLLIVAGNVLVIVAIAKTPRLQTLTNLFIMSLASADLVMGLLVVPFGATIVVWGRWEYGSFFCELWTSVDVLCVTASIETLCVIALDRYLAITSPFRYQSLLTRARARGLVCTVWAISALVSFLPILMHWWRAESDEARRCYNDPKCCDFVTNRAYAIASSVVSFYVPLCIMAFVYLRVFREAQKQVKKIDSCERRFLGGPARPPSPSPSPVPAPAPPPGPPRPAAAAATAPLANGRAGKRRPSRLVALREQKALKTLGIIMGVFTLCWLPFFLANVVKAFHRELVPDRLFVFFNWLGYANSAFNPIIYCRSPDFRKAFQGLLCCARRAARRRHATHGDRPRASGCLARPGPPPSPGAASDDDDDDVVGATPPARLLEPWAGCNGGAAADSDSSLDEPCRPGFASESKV
Melanocortin receptor 3, sequence (P41968 whole entry): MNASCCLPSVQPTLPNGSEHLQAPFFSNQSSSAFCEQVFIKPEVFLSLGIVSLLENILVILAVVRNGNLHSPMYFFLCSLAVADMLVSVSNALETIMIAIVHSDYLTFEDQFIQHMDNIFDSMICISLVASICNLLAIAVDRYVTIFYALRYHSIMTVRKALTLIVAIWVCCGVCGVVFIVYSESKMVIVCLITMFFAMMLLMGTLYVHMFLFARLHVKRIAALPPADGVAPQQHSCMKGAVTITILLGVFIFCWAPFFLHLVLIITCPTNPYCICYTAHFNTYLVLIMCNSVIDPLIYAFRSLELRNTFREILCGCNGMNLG

| Compound | IC50 [1] | IC50 [2] | Ki [2] | IC50 [3] | IC50 [4] | Ki [4] | IC50 [5] | IC50 (Melanocortin receptor 3) | IC50 [6] | Ki [6] | IC50 (Cytochrome P450 1A2) | Ki (Cytochrome P450 1A2) | IC50 ([4]; read-out: IC50) [nM] | Ki ([4]; read-out: Ki) [nM] | Ki [1] | Ki [3] | Ki [5] | Ki (Melanocortin receptor 3) |
| --- | --- | --- | --- | --- | --- | --- | --- | --- | --- | --- | --- | --- | --- | --- | --- | --- | --- | --- |
| C=C(C)[C@H]1Cc2c(ccc3c2O[C@@H]2COc4cc(OC)c(OC)cc4[C@@H]2C3=O)O1 [ROTENONE] | Not Active | Not Active | Not Active | Not Active | Not Active | Not Active | Not Active | Not Active | Not Active | Not Active | Not Active | Not Active | – | – | – | – | – | – |
| Nc1ccc(S(=O)(=O)Nc2nccs2)cc1 [SULFATHIAZOLE] | Not Active | Not Active | Not Active | Not Active | Not Active | Not Active | Not Active | Not Active | Not Active | Not Active | Not Active | Not Active | – | – | – | – | – | – |
| COc1cc(C(=O)NS(=O)(=O)c2ccccc2C)ccc1Cc1cn(C)c2ccc(NC(=O)OC3CCCC3)cc12 [ZAFIRLUKAST] | Not Active | Not Active | Not Active | Not Active | Not Active | Not Active | Not Active | Not Active | Not Active | Not Active | Not Active | Not Active | – | – | – | – | – | – |
| CCCc1nn(C)c2c(=O)[nH]c(-c3cc(S(=O)(=O)N4CCN(C)CC4)ccc3OCC)nc12 | Not Active | Not Active | Not Active | Not Active | Not Active | Not Active | Not Active | Not Active | Not Active | Not Active | Not Active | Not Active | – | – | – | – | – | – |
| O=P(O)(O)C(O)(Cc1cccnc1)P(=O)(O)O [RISEDRONIC ACID] | Not Active | Not Active | Not Active | Not Active | Not Active | Not Active | Not Active | Not Active | Not Active | Not Active | Not Active | Not Active | – | – | – | – | – | – |
| COc1ccc(/C=C/C(=O)Nc2ccccc2C(=O)O)cc1OC | Not Active | Not Active | Not Active | Not Active | Not Active | Not Active | Not Active | Not Active | Not Active | Not Active | Not Active | Not Active | – | – | – | – | – | – |
| CCOC(N)=O | Not Active | Not Active | Not Active | Not Active | Not Active | Not Active | Not Active | Not Active | Not Active | Not Active | Not Active | Not Active | – | – | – | – | – | – |
| C#CCN(C)[C@H](C)Cc1ccccc1 [SELEGILINE] | Not Active | Not Active | Not Active | Not Active | Not Active | Not Active | Not Active | Not Active | Not Active | Not Active | Not Active | Not Active | – | – | – | – | – | – |
| Nc1ccc(S(=O)(=O)Nc2ncccn2)cc1 [SULFADIAZINE] | Not Active | Not Active | Not Active | Not Active | Not Active | Not Active | Not Active | Not Active | Not Active | Not Active | Not Active | Not Active | – | – | – | – | – | – |
| C[C@@H]1C[C@H]2[C@@H]3CCC4=CC(=O)C=C[C@]4(C)C3=CC[C@]2(C)[C@H]1C(=O)CN1CCN(c2cc(N3CCCC3)nc(N3CCCC3)n2)CC1 [TIRILAZAD] | Not Active | Not Active | Not Active | Not Active | – | – | Not Active | Not Active | Not Active | Not Active | Not Active | Not Active | 2500 | 2430 | – | – | – | – |
| COc1ncnc(NS(=O)(=O)c2ccc(N)cc2)c1OC [SULFADOXINE] | Not Active | Not Active | Not Active | Not Active | Not Active | Not Active | Not Active | Not Active | Not Active | Not Active | Not Active | Not Active | – | – | – | – | – | – |
| STANNOUS FLUORIDE | Not Active | Not Active | Not Active | Not Active | Not Active | Not Active | Not Active | Not Active | Not Active | Not Active | Not Active | Not Active | – | – | Not Active | Not Active | Not Active | Not Active |
| CC1=C(CC(=O)O)c2cc(F)ccc2/C1=C\c1ccc(S(C)(=O)=O)cc1 [EXISULIND] | Not Active | Not Active | Not Active | Not Active | Not Active | Not Active | Not Active | Not Active | Not Active | Not Active | Not Active | Not Active | – | – | – | – | – | – |
| O=C(O)C(Cl)(Cl)Cl [TRICHLOROACETIC ACID] | Not Active | Not Active | Not Active | Not Active | Not Active | Not Active | Not Active | Not Active | Not Active | Not Active | Not Active | Not Active | – | – | – | – | – | – |

Reference: ChEMBL document CHEMBL1909046, “DrugMatrix in vitro pharmacology data”
